Laboratory results published in ChEMBL document CHEMBL4190365, “Synthesis and antiproliferative properties of new hydrophilic esters of triterpenic acids” (Eur J Med Chem, 2017).

Experiments:
Type in all cases: functional, cell-based
CCRF-CEM = assay: Cytotoxicity in human CEM cells assessed as reduction in cell viability incubated for 72 hrs by calcein AM cytotoxicity assay
MCF7 = assay: Cytotoxicity in human MCF7 cells assessed as reduction in cell viability incubated for 72 hrs by calcein AM cytotoxicity assay; settings: Homo sapiens, MCF7, 72 h
HeLa = assay: Cytotoxicity in human HeLa cells assessed as reduction in cell viability incubated for 72 hrs by calcein AM cytotoxicity assay; settings: Homo sapiens, HeLa, 72 h
G-361 = assay: Cytotoxicity in human G361 cells assessed as reduction in cell viability incubated for 72 hrs by calcein AM cytotoxicity assay; settings: Homo sapiens, G-361, 72 h
BJ = assay: Cytotoxicity in human BJ cells assessed as reduction in cell viability incubated for 72 hrs by calcein AM cytotoxicity assay; settings: Homo sapiens, BJ, 72 h

Structure (SMILES) | IC50 (CCRF-CEM; ccrf-cem) | IC50 (MCF7) | IC50 (HeLa) | IC50 (G-361) | IC50 (BJ) | IC50 (CCRF-CEM; Homo sapiens, CCRF-CEM, 72 h)
CC(C)[C@@H]1CC[C@]2(C(=O)OCCN3CCCCC3)CC[C@]3(C)[C@H](CC[C@@H]4[C@@]5(C)CC[C@H](O)C(C)(C)[C@@H]5CC[C@]43C)[C@@H]12 | 19.6 µM | 31.8 µM | 26.7 µM | 32.2 µM | 45.1 µM | –
C=C(C)[C@@H]1CC[C@]2(C(=O)OCCN3CCCC3)CC[C@]3(C)[C@H](CC[C@@H]4[C@@]5(C)CC[C@H](O)C(C)(C)[C@@H]5CC[C@]43C)[C@@H]12 | 5 µM | 19.9 µM | 8.5 µM | 11.6 µM | 23.1 µM | –
CC(=O)O[C@H]1CC[C@]2(C)[C@H]3CC[C@@H]4C5=C(C(C)C)C(=O)C[C@]5(C(=O)O[C@@H]5O[C@H](CO)[C@@H](O)[C@H](O)[C@H]5O)CC[C@@]4(C)[C@]3(C)CC[C@H]2C1(C)C | – | 6.6 µM | 9.3 µM | 6.7 µM | 48.2 µM | 12.2 µM
C=C(C)[C@@H]1CC[C@]2(C(=O)O[C@@H]3O[C@H](CO)[C@@H](O)[C@H](O)[C@H]3O)CC[C@]3(C)[C@H](CC[C@@H]4[C@@]5(C)CC[C@H](O)C(C)(C)[C@@H]5CC[C@]43C)[C@@H]12 | – | > 50 µM | > 50 µM | > 50 µM | > 50 µM | > 50 µM
CC(C)[C@@H]1CC[C@]2(C(=O)OCC(=O)O)CC[C@]3(C)[C@H](CC[C@@H]4[C@@]5(C)CC[C@H](O)C(C)(C)[C@@H]5CC[C@]43C)[C@@H]12 | – | > 50 µM | > 50 µM | > 50 µM | > 50 µM | > 50 µM
CC(C)[C@@H]1CC[C@]2(C(=O)OCCN3CCOCC3)CC[C@]3(C)[C@H](CC[C@@H]4[C@@]5(C)CC[C@H](O)C(C)(C)[C@@H]5CC[C@]43C)[C@@H]12 | – | 37.6 µM | 31.8 µM | 33.8 µM | 37.4 µM | 45.8 µM
CC(C)[C@@H]1CC[C@]2(C(=O)O[C@@H]3O[C@H](CO)[C@@H](O)[C@H](O)[C@H]3O)CC[C@]3(C)[C@H](CC[C@@H]4[C@@]5(C)CC[C@H](O)C(C)(C)[C@@H]5CC[C@]43C)[C@@H]12 | – | > 50 µM | > 50 µM | > 50 µM | > 50 µM | > 50 µM
CC(=O)OC[C@H]1O[C@@H](OC(=O)[C@]2(COC(C)=O)CC[C@]3(C)[C@H](CC[C@@H]4[C@@]5(C)CC[C@H](OC(C)=O)C(C)(C)[C@@H]5CC[C@]43C)[C@@H]2O)[C@H](OC(C)=O)[C@@H](OC(C)=O)[C@@H]1OC(C)=O | – | > 50 µM | > 50 µM | > 50 µM | 43 µM | > 50 µM
COCCOC(=O)[C@]1(COC(C)=O)CC[C@]2(C)[C@H](CC[C@@H]3[C@@]4(C)CC[C@H](OC(C)=O)C(C)(C)[C@@H]4CC[C@]32C)C1=O | – | > 50 µM | > 50 µM | > 50 µM | > 50 µM | > 50 µM
CC(C)[C@@H]1CC[C@]2(C(=O)OCCN3CCCC3)CC[C@]3(C)[C@H](CC[C@@H]4[C@@]5(C)CC[C@H](O)C(C)(C)[C@@H]5CC[C@]43C)[C@@H]12 | – | 10.3 µM | 7.7 µM | 8.2 µM | 17 µM | 2.8 µM
COCCOCCOC(=O)[C@@]12CC[C@]3(C)[C@H](CC[C@@H]4[C@@]5(C)CC[C@H](OC(C)=O)C(C)(C)[C@@H]5CC[C@]43C)C1=C(C(C)C)C(=O)C2 | – | 21.9 µM | 17.1 µM | 11.8 µM | > 50 µM | 17.6 µM
CC(=O)O[C@H]1CC[C@]2(C)[C@H]3CC[C@@H]4C5=C(C(C)C)C(=O)C[C@]5(C(=O)O[C@@H]5O[C@H](CO)[C@H](O)[C@H](O)[C@H]5O)CC[C@@]4(C)[C@]3(C)CC[C@H]2C1(C)C | – | 37 µM | 38.8 µM | 42.7 µM | 48.2 µM | 18.8 µM
C=C(C)[C@@H]1CC[C@]2(C(=O)OCCN3CCOCC3)CC[C@]3(C)[C@H](CC[C@@H]4[C@@]5(C)CC[C@H](O)C(C)(C)[C@@H]5CC[C@]43C)[C@@H]12 | – | > 50 µM | 50 µM | > 50 µM | > 50 µM | –
CC(C)[C@@H]1CC[C@]2(C(=O)OCC(=O)OCc3ccccc3)CC[C@]3(C)[C@H](CC[C@@H]4[C@@]5(C)CC[C@H](O)C(C)(C)[C@@H]5CC[C@]43C)[C@@H]12 | – | > 50 µM | > 50 µM | > 50 µM | > 50 µM | 24.1 µM
C=C(C=O)[C@@H]1CC[C@]2(C(=O)OCCN3CCOCC3)CC[C@]3(C)[C@H](CC[C@@H]4[C@@]5(C)CC[C@H](O)C(C)(C)[C@@H]5CC[C@]43C)[C@@H]12 | – | 2.2 µM | 11 µM | 5.3 µM | 19.2 µM | 3.8 µM
